Measurements from patent publication US12653895B2, “Therapeutic conjugates” (Totus Medicines Inc., priority 2019, dated 2026).

Test system: PI3-kinase
Experiment: NanoBRET screening of ARCS in transfected HEK293 cells with washout (covalent binding to and inhibition of PI3-kinase)
Assay type: cell-based
Settings: NanoBRET binding assay; key headed Percent inhibition
Method: Human embryonic kidney 293-H (HEK 293, Gibco 293-H, #11631017) cell lines are maintained in Dulbecco's Modified Eagle Medium, high glucose, pyruvate (DMEM, Gibco, #11995065) supplemented with 10% fetal bovine serum (FBS, Gibco, #10082147) and 1× penicillin-streptomycin (100× solution, Gibco, #15140148) at 37° C. and 5% CO2 in a water-saturated incubator. Cell are trypsinized using 0.05% or 0.25% Trypsin-EDTA solution (Trypsin-EDTA, phenol red, Gibco, #25200056 (0.25%) or #25300054). Opti-MEM media supplemented with 10% fetal bovine serum (Opti-MEM I reduced serum media, no phenol red, Gibco, #11058021) is used for culturing cells overnight for NanoBRET readout experiments.
HEK293 cells are cultivated appropriately prior to assay. The medium from cell flask is removed via aspiration, washed 1× with PBS followed by aspiration, trypsinized, and cells are allowed to dissociate from the flask. Trypsin is neutralized using growth medium and cells are pelleted via centrifugation at 200×g for 5 minutes. The medium is aspirated and the cells are resuspended into a single cell suspension using Opti-MEM I supplemented with 10% FBS. The cell density is adjusted to 2×10^5/mL in Opti-MEM I supplemented with 10% FBS in a sterile, conical tube. The cells are transfected and aliquoted directly in a 96-well plate for the NanoBRET assay the next day, and therefore, the cells are cultured overnight in Opti-MEM. The cells are also transfected in bulk and dispensed into a 96-well plate to allow cells to adhere to the plate overnight, thereby enabling washout studies.
The lipid:DNA complexes are prepared as follows:
A 10 μg/mL solution of DNA is prepared in Opti-MEM without serum. This solution contains the following ratios of carrier DNA and DNA encoding NanoLuc fused to the biological target. Serial dilution steps may be warranted to accurately dilute the NanoLuc fusion DNA. Added, in order, the following reagents to a sterile polystyrene test tube: 1 mL of Opti-MEM without phenol red; 9.0 μg/mL of carrier DNA; 1.0 μg/mL of NanoLuc fusion DNA (for some targets, the amount is less). The reagents are mixed thoroughly.
30 μL of FuGENE HD is added into each mL of DNA mixture to form lipid:DNA complex. […] It is mixed by pipetting up and down 5-10 times and incubated at room temperature for 20 minutes to allow complexes to form. 1 part (e.g. 1 mL) of lipid:DNA complex is mixed with 20 parts (e.g. 20 mL) of HEK293 cells in suspension at 2×10^5/mL and mixed gently by pipetting up and down 5 times in a sterile, conical tube. Larger or smaller bulk transfections are scaled accordingly, using this ratio. […] is dispensed into a sterile, tissue-culture treated 96-well plate (20,000 cells/well), and incubated at least 16 hours to allow expression. The cells are incubated in a 37° C.+5% CO2 incubator for >16 hrs. A serially diluted inhibitor or test compound is prepared at 100× final concentration in 100% DMSO. The serially diluted inhibitor stock is prepared in PCR plates. 1 μL per well of 100× serially diluted inhibitor/test compound is added to the cells in 96-well plates that have been transiently transfected overnight and mixed by tapping the plate by hand. The plate is incubated at 37° C.+5% CO2 incubator overnight. A 1× solution of substrate mix (500× stock) and appropriate concentration of tracer is prepared in Opti-Mem. The cells are washed by setting a plate washer to the 96 well plate 5× in PBS pH 7.4 by adding 200 μL PBS each time. The cells are incubated at 37° C. for 2 hours. […], of the 1× Substrate-Tracer solution is added and the 96 well plate is gently tapped to mix. The plate on plate reader is read every hour for the next 6 hours. The binding assays of some ARCS are shown below. Compound 1-XXXII formed a covalent bond with PI3-kinase from about 5% to 20%. ARCS selected from the group consisting of Compounds 1-101, 1-102, 1-113, 1-114, 1-119, 1-120, 1-125 and 1-126 formed a covalent bond with PI3-kinase from about 80% to 100%. […]

SMILES | Binding
COC(=O)Nc1cc(C(F)(F)F)c(-c2nc(N3CCOCC3)c3cc(CN4CCN(C(=O)CCC(=O)/C=C/CN(C)C)CC4)cn3n2)cn1 [Compound 1-119] | +++ (>80%)
COC(=O)Nc1cc(C(F)(F)F)c(-c2nc(N3CCOCC3)c3cc(CN4CCN(C(=O)CNC(=O)/C=C/CN(C)C)CC4)cn3n2)cn1 [Compound 1-120] | +++ (>80%)
CC#CC(=O)CCC(=O)N1CCN(Cc2cc3c(N4CCOCC4)nc(-c4cnc(NC(=O)OC)cc4C(F)(F)F)nn3c2)CC1 [Compound 1-125] | +++ (>80%)
C=CC(=O)NCC(=O)N1CCN(Cc2cc3c(N4CCOCC4)nc(-c4cnc(NC(=O)OC)cc4C(F)(F)F)nn3c2)CC1 [Compound 1-102] | +++ (>80%)
COC(=O)Nc1cc(C(F)(F)F)c(-c2nc(N3CCOCC3)c3cc(CN4CCN(C(=O)CCC(=O)C=C(C)C)CC4)cn3n2)cn1 [Compound 1-113] | +++ (>80%)
C=CC(=O)CCC(=O)N1CCN(Cc2cc3c(N4CCOCC4)nc(-c4cnc(NC(=O)OC)cc4C(F)(F)F)nn3c2)CC1 [Compound 1-101] | +++ (>80%)
COC(=O)Nc1cc(C(F)(F)F)c(-c2nc(N3CCOCC3)c3cc(CN4CCN(C(=O)CNC(=O)C=C(C)C)CC4)cn3n2)cn1 [Compound 1-114] | +++ (>80%)
CC#CC(=O)NCC(=O)N1CCN(Cc2cc3c(N4CCOCC4)nc(-c4cnc(NC(=O)OC)cc4C(F)(F)F)nn3c2)CC1 [Compound 1-126] | +++ (>80%)
C=CC(=O)Nc1ccc(CCNCc2cc3c(N4CCOCC4)nc(-c4cnc(NC(=O)OC)cc4C(F)(F)F)nn3c2)cc1 [Compound 1-172] | ++ (50-80%)
C=CC(=O)Nc1ccc(C(=O)N2CCN(Cc3cc4c(N5CCOCC5)nc(-c5cnc(NC(=O)OC)cc5C(F)(F)F)nn4c3)CC2)cc1 [Compound 1-171] | ++ (50-80%)
